# Measured values reported in US20110152340A1, “Methods for Identifying Subjects With an Increased Likelihood of Responding to DPP-IV Inhibitors” (BRISTOL-MYERS SQUIBB COMPANY, priority 2008, published 2011).
# Legend:
# Assay type in all cases: in vivo, human
# [1] = Saxagliptin clinical trials: fasting glucose response by GRINL1A genotype
# Method: (§1) SNPs from the genome-wide SNP panel were tested for association with response to DPP-IV inhibitors by two analytical methodologies. In one method, SNPs were identified with significant differences in mean HBA1C response among individuals with different genotypes on treatment, taking into account covariates such as demographic differences with an analysis of covariance (ANCOVA) statistical model. SNPs with consistent in their effect on HBA1C in both trials were considered for further evaluation. In a second method, SNPs were examined for association with response cluster. SNPs consistently associated with response cluster in both trials were further evaluated for influence on fasting glycosylated hemoglobin or glucose levels using analysis of covariance.
# (§2) Sample: Subjects in BMS clinical trials, (Trial A and Trial B) receiving DPP-IV inhibitor (saxigliptin) therapy. All subjects have diabetes and the study group was mixed with respect to age, race and duration of diabetes. Measures: Single nucleotide polymorphisms (SNPs) in a genome-wide panel were genotyped on all subjects essentially as described in Example 1. […] The SNPs that were genotyped likely represent a sample of the polymorphic variation in each gene and are not exhaustive with regard to coverage of the total genetic variation that may be present in each gene. […] Statistical Analyses: Initial analysis to determine SNP association with cluster membership was performed using the genotypic test (2-degrees of freedom) implemented in the program PLINK (Purcell et al., 2007 Amer. Journ. Hum Genet. 81: 559-75. PLINK: a tool set for whole-genome association and population-based linkage analyses). […] Follow-up analysis was performed employing a statistical package, SPSS v.14 (SPSS Inc. Chicago, Ill.). […] SNPs that were associated with differential genotype response were identified by a significant difference in HBA1C response (P<=0.05) in two independent trials. Analysis was performed employing a statistical package, SAS v. […] Differences in means between clusters for HbA1c were evaluated using Kruskal-Wallis test.
# [2] = Saxagliptin clinical trials (Trial A and Trial B): HbA1c response by SNP genotype
# Method: The association between the SNPs and the response to saxagliptin was evaluated in two ways. SNPs from the genome-wide SNP panel were tested for association with response to DPP-IV inhibitors by two analytical methodologies. In one method, SNPs were identified with significant differences in mean HBA1C response among individuals with different genotypes on treatment, taking into account covariates such as demographic differences with an analysis of covariance (ANCOVA) statistical model. SNPs with consistent in their effect on HBA1C in both trials were considered for further evaluation. In a second method, SNPs were examined for association with response cluster. SNPs consistently associated with response cluster in both trials were further evaluated for influence on fasting glycosylated hemoglobin or glucose levels using analysis of covariance. Sample: Subjects in BMS clinical trials, (Trial A and Trial B) receiving DPP-IV inhibitor ([…]) therapy. All subjects have diabetes and the study group was mixed with respect to age, race and duration of diabetes. Measures: Single nucleotide polymorphisms (SNPs) in a genome-wide panel were genotyped on all subjects essentially as described in Example 1. […] The SNPs that were genotyped likely represent a sample of the polymorphic variation in each gene and are not exhaustive with regard to coverage of the total genetic variation that may be present in each gene. The SNP for which a statistical association to DPP-IV inhibitor-dependent metabolic abnormalities was confirmed is provided in Table III. Statistical Analyses: Initial analysis to determine SNP association with cluster membership was performed using the genotypic test (2-degrees of freedom) implemented in the program PLINK (Purcell et al., 2007 Amer. Journ. Hum […]: a tool set for whole-genome association and population-based linkage analyses). […] Follow-up analysis was performed employing a statistical package, SPSS v.14 (SPSS Inc. Chicago, Ill.). Some SNP associations were also discovered or confirmed using an ANCOVA modeling approach as described below. SNPs that were associated with differential genotype response were identified by a significant difference in HBA1C response (P<=0.05) in two independent trials. Analysis was performed employing a statistical package, SAS v. 8.2 (SAS Institute Inc., Cary, N.C.). […] Baseline glycosylated hemoglobin (HbA1c) and change in HbA1c after twelve weeks (study A) or twenty-four weeks (study B) of DPP-IV inhibitor therapy for each individual were used in this analysis. […] This process was iteratively repeated until all individuals were clustered into groups, either non-responders (poor response to saxagliptin therapy) or super responders (response to saxagliptin therapy). The two-step clustering routine implemented in SPSS version 12 (Chicago, Ill., US) was used. Differences in means between clusters for HbA1c were evaluated using Kruskal-Wallis test. […] The ANCOVA model provides an estimate of mean final HbA1C after treatment for different genotypes, taking into account clinical and demographic information. […] The SNP genotype was included in the model and the difference in HbA1c was estimated between wildtype homozygous and heterozygous or rare homozygous individuals. SNPs that were associated with differential genotype response were identified by a significant (P<=0.05) difference (in the same direction) in HBA1C response between genotypes in two independent trials. Analysis was performed using contrast estimates with the GLM procedure in SAS v. 8.2 (SAS Institute Inc., Cary, N.C.).
# [3] = Saxagliptin clinical trials: AUC glucose response by GRINL1A genotype
# Method: as §1, §2
smiles,measurement,setting,value
"N#C[C@@H]1C[C@@H]2C[C@@H]2N1C(=O)[C@@H](N)C12CC3CC(CC(O)(C3)C1)C2 [saxagliptin, (1S,3S,55)-2-[(2S)-2-amino-2-(3-hydroxytricyclo[3.3.1.1^3,7]dec-1-yl)-1-oxoethyl]-2-azabicyclo[3.1.0]hexane-3-carbonitrile]",mean change in fasting glucose levels,"[1]; FIG. 10, GRINL1A position 87,992, reference carriers vs SNP carriers",higher reduction in mean fasting glucose levels
same,mean change in fasting glucose levels following saxagliptin treatment,"[1]; subjects homozygous for the reference allele (T/T) at position 87,992 of SEQ ID NO: 1 (GRINL1A), compared to carriers of the variant allele",significant reduction in the mean fasting glucose levels
same,mean change in fasting glucose levels following saxagliptin treatment,"[1]; variant SNP carriers (C/T or C/C) at position 87,992 of SEQ ID NO: 1 (GRINL1A), compared with matched placebo controls",little change in the fasting glucose levels
same,mean change in HbA1c levels,"[2]; FIG. 9, GRINL1A position 87,992, reference carriers vs SNP variant carriers",higher reduction in mean glycosylated hemoglobin
same,mean change in HbA1c levels,"[2]; FIG. 12, HSD11B1 position 34,403, reference carriers vs SNP carriers",higher reduction in mean glycosylated hemoglobin
same,mean change in HbA1c levels,"[2]; FIG. 13, CHST10 position 24,707, reference carriers vs SNP carriers",higher reduction in mean glycosylated hemoglobin
same,mean change in HbA1c levels,"[2]; FIG. 14, CHST10 position 34,078, reference carriers vs SNP carriers",higher reduction in mean glycosylated hemoglobin
same,mean change in HbA1c levels,"[2]; FIG. 15, CHST10 position 35,799, reference carriers vs SNP carriers",higher reduction in mean glycosylated hemoglobin
same,mean change in HbA1c levels,"[2]; FIG. 16, CHST10 position 38,709, reference carriers vs SNP carriers",higher reduction in mean glycosylated hemoglobin
same,mean change in HbA1c levels,"[2]; FIG. 17, CHST10 position 38,947, reference carriers vs SNP carriers",higher reduction in mean glycosylated hemoglobin
same,mean change in HbA1c levels,"[2]; FIG. 18, CHST10 position 41,180, reference carriers vs SNP carriers",higher reduction in mean glycosylated hemoglobin
same,mean change in HbA1c levels following saxagliptin treatment,"[2]; Trial A and Trial B, variant SNP carriers at positions 24,707, 34,078, 35,799, 38,709, 38,947 or 41,180 of SEQ ID NO: 5 (CHST10), compared with reference allele homozygotes",little change in HbA1c levels
same,mean HbA1C in response to therapy,"[2]; homozygous reference allele (T/T) vs heterozygous (T/C) individuals at position 26,472 of SEQ ID NO: 63 or 64 (TEKT5), both trials",lower mean HbA1C in response to therapy than heterozygous individuals
same,mean change in HbA1c levels following saxagliptin treatment,"[2]; reference allele homozygotes at position 34,403 of SEQ ID NO: 3 or 4 (HSD11B1), compared to carriers of the variant allele",greaterreduction in mean HbA1c levels
same,mean change in HbA1c levels following saxagliptin treatment,"[2]; subjects homozygous for the reference allele (T/T) at position 87,992 of SEQ ID NO: 1 or 2 (GRINL1A)",significant reduction in mean HbA1c levels
same,mean change in HbA1c levels following saxagliptin treatment,"[2]; variant SNP carriers (C/T or C/C) at position 87,992 of SEQ ID NO: 1 or 2 (GRINL1A)",little change in HbA1c levels
same,mean change in HbA1c levels following saxagliptin treatment,"[2]; variant SNP carriers at position 34,403 of SEQ ID NO: 3 or 4 (HSD11B1)",little change in HbA1c levels
same,mean change in AUC Glucose levels,"[3]; FIG. 11, GRINL1A position 87,992, reference carriers vs SNP carriers",higher reduction in AUC Glucose levels
same,mean change in AUC glucose levels following saxagliptin treatment,[3]; GRINL1A variant SNP carriers,little change in the AUC glucose levels
same,mean change in AUC glucose levels following saxagliptin treatment,[3]; those homozygous for the GRINL1A reference allele,significant reduction in the AUC glucose levels
